ChEMBL document CHEMBL6096715, “Novel TYK2 Inhibitors for Treating Autoimmune and Inflammatory Diseases” (ACS Med Chem Lett, 2025)
pIC50: −log10 of the molar value.

Biological target: Non-receptor tyrosine-protein kinase TYK2 (Homo sapiens, UniProt P29597)
Sequence (P29597 whole entry): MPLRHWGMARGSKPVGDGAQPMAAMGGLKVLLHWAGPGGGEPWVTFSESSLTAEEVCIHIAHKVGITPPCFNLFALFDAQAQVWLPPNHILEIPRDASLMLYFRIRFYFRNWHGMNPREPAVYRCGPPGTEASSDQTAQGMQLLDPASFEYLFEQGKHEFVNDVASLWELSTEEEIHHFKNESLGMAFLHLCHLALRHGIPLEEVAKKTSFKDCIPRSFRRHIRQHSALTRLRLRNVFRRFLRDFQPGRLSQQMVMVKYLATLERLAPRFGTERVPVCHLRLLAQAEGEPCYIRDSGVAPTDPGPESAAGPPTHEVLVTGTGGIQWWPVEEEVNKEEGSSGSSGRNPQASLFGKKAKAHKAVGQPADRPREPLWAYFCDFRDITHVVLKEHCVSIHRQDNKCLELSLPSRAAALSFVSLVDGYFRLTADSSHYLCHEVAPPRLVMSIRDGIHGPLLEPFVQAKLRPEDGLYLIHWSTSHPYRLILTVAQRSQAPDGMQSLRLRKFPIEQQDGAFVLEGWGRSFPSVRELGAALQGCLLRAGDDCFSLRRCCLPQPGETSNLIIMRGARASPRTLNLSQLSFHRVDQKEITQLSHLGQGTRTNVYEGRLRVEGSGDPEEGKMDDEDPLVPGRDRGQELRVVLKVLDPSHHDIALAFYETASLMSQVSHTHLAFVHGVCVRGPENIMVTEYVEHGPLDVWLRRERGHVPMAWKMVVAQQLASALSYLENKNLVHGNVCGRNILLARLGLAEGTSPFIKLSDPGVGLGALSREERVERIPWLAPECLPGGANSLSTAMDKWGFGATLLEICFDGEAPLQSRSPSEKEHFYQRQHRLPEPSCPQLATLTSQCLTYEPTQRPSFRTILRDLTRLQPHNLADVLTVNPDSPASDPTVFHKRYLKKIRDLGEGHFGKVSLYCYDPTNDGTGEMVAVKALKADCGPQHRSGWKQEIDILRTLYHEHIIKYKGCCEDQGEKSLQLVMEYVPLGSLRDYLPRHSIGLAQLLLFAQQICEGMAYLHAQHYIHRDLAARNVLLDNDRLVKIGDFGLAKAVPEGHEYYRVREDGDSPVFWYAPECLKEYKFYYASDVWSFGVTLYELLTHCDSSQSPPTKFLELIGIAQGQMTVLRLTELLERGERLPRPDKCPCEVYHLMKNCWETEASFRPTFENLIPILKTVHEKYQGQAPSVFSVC

Question: With `Cn1cc(-c2cc3c(N4C[C@H]5CC[C@@H](C4)N5[C@H]4C[C@@H](C#N)C4(C)C)ccnn3c2)cn1` as the molecule, how does the pIC50 read?
Answer: 8.63
